Patent US4020150A (priority 1974, dated 1977)

Legend:
Walker tumor [1] = conditions: cited from earlier work
Walker tumor [2] = conditions: rat, in vivo; cited from earlier work
burn wounds = conditions: burn therapy; cited from earlier work
[3] = cited from earlier work
P. berghei = conditions: high doses of PABA, protocol of Rollo
tumors = conditions: by itself; cited from earlier work
[4] = in water; cited from earlier work
[5] = system: Yoshidia sarcoma and other tumors; conditions: Connors et al.; cited from earlier work

Which results are given for N[C@@H](Cc1ccc(N(CCCl)CCCl)cc1)C(=O)O [melphalan]?
effectiveness against the tumor (Walker tumor [1]): very effective against the tumor; ratio of concentration between the Walker tumor and the liver (Walker tumor [2]): 1:5

With Nc1ccc(S(=O)(=O)Nc2ncccn2)cc1 [sodium sulfadiazine] as the compound, how does the “reaction with body fluids / consumption” value (burn wounds) read?
The value was “would be used up rapidly and none would be left after a few days”.

What about the solubility ([3]; water-soluble) of the same compound?
The solubility was “water-soluble”.

With Nc1ccc(S(=O)(=O)Nc2ncccn2)cc1 [sulfadiazine] as the compound, how does the “inhibition of activity by PABA” value (P. berghei) read?
Its value is “significantly inhibited by PABA”.

What about the anti-tumor activity (tumors) of the same compound?
Its anti-tumor activity is “not an anti-tumor agent”.

What about the “solubility of free acid” value ([3]; free acid) of the same compound?
The value was “insoluble as a free acid”.

What about the solubility when ionized ([3]; ionized) of the same compound?
Its solubility when ionized is “very soluble when ionized”.

With Nc1ccc(S(=O)(=O)Nc2cnccn2)cc1 [sulfapyrazine] as the compound, how does the pKa [4] read?
The pKa was 6.0.

And the “selective deposition/concentration in Walker tumor” value (Walker tumor [2])?
The value was “selectively deposited in the tumor regions”.

Which results are given for Nc1ccc(S(=O)(=O)Nc2nccs2)cc1 [sulfathiazole]?
selective concentration in other transplanted animal tumors [5]: do not concentrate selectively in these tumors; pKa [4]: 7.1
